As a reminder, the inhibition is the relative decrease from the control value, in per cent. In general, IC50 refers to the concentration that gives 50% inhibition.

Records with an inconclusive call do not appear. Active and inactive are the calls of the source.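 Rule for the calls: active = compounds with IC50 under 50 µM in each of two repeat runs and on average; inconclusive = just one of the two runs above 50 µM; inactive = both runs and average above 50 µM.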

Drawing on PubChem BioAssay AID463181 (University of Pittsburgh Molecular Library Screening Center, 2010), this text covers inhibition and IC50 for 64 compounds.

The nature of test [1]: inhibitors of zVAD-triggered L929 necroptosis, potency, dose response, L929 cells, duplicate IC50 (AID 463181). The settings on record: L929 zVAD necroptosis rescue, ATP luminescence, 24 h; inhibition of cell death; at 50 µM; stronger effect = higher value.
In test [2] the test system is L929 zVAD necroptosis rescue, ATP luminescence, 24 h. The description is as above.

For the compound `Cc1ccc2c(c1)C(C)CC(C)(C)N2C(=O)NC1CCCCC1` (stereo not drawn), in test [1], the inhibition came to 1.73%. In test [2], the IC50 was > 20 µM (inactive).
Regarding `O=C(CSc1nnnn1-c1ccc2c(c1)OCCO2)Nc1nc2c(s1)CCCC2`, the inhibition in test [1] is 0.775%. Also, in test [2], the IC50 is > 20 µM (inactive).
The like results for `CCN(CC)Cc1cc2[nH]c3c4ccc(Cl)cc4ncc3c2cc1OC` were, in that order, 0.811% and > 20 µM (inactive).
The like results for `C[C@H]1C[C@@H](C)C(=O)[C@@H]([C@H](O)CC2CC(=O)NC(=O)C2)C1` were, in that order, 112% and 0.986 µM.
Consider `CCN(CC)CCn1c2ccccc2c2cnc(N)c(C#N)c21`, for which, in test [1], the inhibition was determined as 68.7%. Further, in test [2], the IC50 was 17.7 µM.
`Brc1ccc(COn2ccnc2)cc1`: the inhibition in test [1] stood at 79.8%. Further, the concentration for half-maximal inhibition (IC50) in test [2] was 16.8 µM.
As for `COc1cc(/C=N/Nc2nc3ccccc3s2)ccc1OC(=O)c1ccccc1F`, the inhibition in test [1] is 1.24%. The IC50 in test [2] is > 20 µM (inactive).
As to `COc1ccc(-n2cnnc2SCC(=O)Nc2cc(C(C)(C)C)nn2-c2ccccc2)cc1`, the inhibition in test [1] amounted to 70%. For the same compound, in test [2], the IC50 is 4.77 µM.
As for `Nc1nnnn1/N=C/C(Br)=C/c1ccccc1`, in test [1], the inhibition worked out at 0.0265%. Moreover, the IC50 in test [2] was > 20 µM (inactive).
Consider `CN(CC1CCCO1)S(=O)(=O)c1ccc(C(=O)Nc2nccs2)cc1` (stereo not drawn), for which the inhibition in test [1] was 97.5%. Further, in test [2], the IC50 was 7.39 µM.
For `O=C(CSc1nnc(NC2CCCCC2)s1)Nc1ccc2c(c1)C(=O)c1ccccc1C2=O`, in test [1], the inhibition worked out at 0.754%. Also, the IC50 in test [2] is > 20 µM (inactive).
The like results for `O=C(OCn1ncc(Br)c(Br)c1=O)c1ccc(F)cc1` were, in that order, 8.06% and > 20 µM (inactive).
In the case of `Nc1ccccc1Nc1cc(-c2ccccc2)[nH]n1`, the inhibition in test [1] amounted to 90.9%. The IC50 in test [2] is 2.78 µM.
As for `Cc1ccc(-c2nc(Nc3ccccc3)n[nH]2)cc1`, the inhibition in test [1] worked out at 0.11%. The IC50 in test [2] was > 20 µM (inactive).
The like results for `Oc1ccc(/C=N/Nc2ccc(C(F)(F)F)cn2)cc1O` were, in that order, 87.6% and 4.19 µM.
The like results for `CCN1CCN(Cc2ccc(NC(=O)c3cc(NC(=O)c4cnn(-c5ccccc5)c4N)cc(OC)c3)cc2C(F)(F)F)CC1` were, in that order, 80.3% and 9.96 µM.
Consider `Cc1ccc(C(=O)Nc2cccc(C(F)(F)F)c2)cc1Nc1cnccn1`, for which the inhibition in test [1] was determined as 74.3%. In addition, the IC50 in test [2] was 10.8 µM.
The like results for `Cc1noc(C)c1/C=N/Nc1ccccn1` were, in that order, 81.6% and 16.9 µM.
The like results for `COc1cc(NC(=O)c2cnc(N)s2)cc(C(=O)Nc2cccc(C(F)(F)F)c2)c1` were, in that order, 75.8% and 17.4 µM.
For the compound `O=C1Nc2ccccc2/C1=C/c1cnc[nH]1`, in test [1], the inhibition turned out to be 85.9%. For the same compound, in test [2], the concentration for half-maximal inhibition (IC50) was 9.67 µM.
The like results for `C=C1C(=O)[C@@]23[C@H](O)C[C@@H]4C(C)(C)CC[C@H](O)[C@@]4(C)[C@@H]2CC[C@@H]1[C@H]3O` were, in that order, 144% and 10.1 µM.
On to `Cn1c(N)c(C(=O)N/N=C/c2ccccc2)sc1=S`, for which, in test [1], the inhibition was found to be 76.3%. In addition, the IC50 in test [2] was 17.3 µM.
Consider `Cc1cc(N/N=C/c2ccncc2)nc2ccccc12`, for which the inhibition in test [1] is 81.6%. For the same compound, the IC50 in test [2] is 18.5 µM.
For `COc1cc(/C=N/Nc2ccccn2)ccc1O`, the inhibition in test [1] is 91.1%. For the same compound, the IC50 in test [2] is 14.9 µM.
The like results for `Cc1ccc2[nH]c3c(c2c1)CCc1cn[nH]c1-3` were, in that order, 82.2% and 1.29 µM.
Regarding `COc1ccc(/C=N/Nc2nc3ccccc3s2)cc1O`, the inhibition in test [1] stood at 72.2%. Besides, the IC50 in test [2] is 17.3 µM.
The like results for `Cc1ccc(C2CC(=O)NC(SCC(=O)Nc3nccs3)=C2C#N)cc1` (stereo not drawn) were, in that order, 80.8% and 0.251 µM.
Consider `COc1cc(/C=N/Nc2ccc(C(F)(F)F)cn2)ccc1O`, for which the inhibition in test [1] stood at 82.3%. Moreover, the 50% inhibitory concentration (IC50) in test [2] was 16.7 µM.
The like results for `Cn1nc(C(C)(C)C)cc1NC(=O)Nc1cc(Cl)cc(Cl)c1` were, in that order, 2.91% and > 20 µM (inactive).
The like results for `Cc1ccc(/C=N\Nc2nc3ccc(Cl)cc3[nH]2)o1` were, in that order, 0.613% and > 20 µM (inactive).
The like results for `O=C(Nc1nccs1)c1ccc(S(=O)(=O)NCc2cccs2)cc1` were, in that order, 2.91% and > 20 µM (inactive).
Consider `Cc1cnc(NC(=O)c2ccc(OCC3CCCO3)cc2)s1` (stereo not drawn), for which, in test [1], the inhibition worked out at 74.2%. Moreover, the IC50 in test [2] was 8.49 µM.
The like results for `COc1ccc(N=Cc2c(O)[nH]c3ccccc23)cc1OC` were, in that order, 81.8% and 6.83 µM.
The like results for `c1ccc2c3c([nH]c2c1)-c1[nH]ncc1CC3` were, in that order, 78.5% and 0.194 µM.
Consider `O=C(/C=C/c1cccc(F)c1)Nc1nccs1`, for which the inhibition in test [1] worked out at 1.43%. Besides, the IC50 in test [2] is > 20 µM (inactive).
As to `Cn1nnnc1SCc1ccc(C(=O)Nc2nccs2)cc1`, the inhibition in test [1] turned out to be 76.4%. Besides, the IC50 in test [2] was 16.9 µM.
The like results for `COC(=O)c1ccn(Cc2ccccc2Cl)n1` were, in that order, 81.2% and 16.3 µM.
The like results for `CCN1C(=O)/C(=C/c2ccc(C)s2)NC1=S` were, in that order, 88.7% and 2.05 µM.
The like results for `CC(=O)Nc1ccc(Sc2ncccc2C(=O)Nc2ccc(OC(F)(F)F)cc2)cn1` were, in that order, 5.08% and > 20 µM (inactive).
Consider `CN(C)S(=O)(=O)c1ccc(Cl)c(NC(=O)CSc2nnnn2-c2ccc(O)cc2)c1`, for which the inhibition in test [1] was determined as 78.6%. Besides, the IC50 in test [2] is 17.7 µM.
The like results for `O=C(CCl)Nc1cc(SCC(O)CO)cc([N+](=O)[O-])c1` (stereo not drawn) were, in that order, 94.4% and 14.4 µM.
As for `CC(=O)Nc1ccc(/C=N/Nc2nc3ccccc3s2)cc1`, in test [1], the inhibition came out at 70.2%. The concentration for half-maximal inhibition (IC50) in test [2] was 18.8 µM.
The like results for `Cc1cn(-c2cc(C(=O)Nc3ccc(C)c(NC(=O)C(=O)c4c[nH]c5ccccc45)c3)cc(C(F)(F)F)c2)cn1` were, in that order, 1.07% and > 20 µM (inactive).
The like results for `CCCc1cc(C(=O)Nc2nccs2)cs1` were, in that order, 76.6% and 9.59 µM.
As to `CC(=O)OC[C@]12CCC(C)=C[C@H]1O[C@@H]1[C@H](O)[C@@H](OC(C)=O)[C@@]2(C)[C@]12CO2`, the inhibition in test [1] worked out at 114%. Also, the IC50 in test [2] is below 0.039 µM.
With `Cc1cnc(NC(=O)c2cc3c(s2)CCCC3)s1`, the inhibition in test [1] stood at 10.4%. Further, in test [2], the IC50 is > 20 µM (inactive).
For the compound `CCN1CCN(Cc2ccc(NC(=O)c3ccc(C)c(NC(=O)c4nccnc4N)c3)cc2C(F)(F)F)CC1`, the inhibition in test [1] was found to be 74%. Moreover, the IC50 in test [2] is 1.46 µM.
For the compound `COc1cc(N=Cc2c(O)[nH]c3ccccc23)cc(OC)c1OC`, in test [1], the inhibition is 89.1%. Besides, in test [2], the IC50 was 7.09 µM.
The like results for `O=C(C1=NNCC1c1ccc(Cl)cc1)C1CO1` (stereo not drawn) were, in that order, 103% and 3.69 µM.
The like results for `COc1ccc(/C=C2\N=C(SC)NC2=O)cc1` were, in that order, 80.6% and 5.22 µM.
For the compound `O=C(C1=NNCC1c1ccccc1)C1CO1` (stereo not drawn), the inhibition in test [1] is 87.3%. Moreover, in test [2], the IC50 was 15.8 µM.
For the compound `Clc1ccc(COn2ccnc2)cc1Cl`, the inhibition in test [1] is 82.6%. Moreover, in test [2], the concentration for half-maximal inhibition (IC50) was 10.9 µM.
As to `Cc1[nH]c2ccccc2c1/C=N/Nc1ccccn1`, the inhibition in test [1] was 92.7%. Besides, in test [2], the IC50 was 15 µM.
For `CCN1CCN(Cc2ccc(NC(=O)c3ccc(C)c(NC(=O)c4csc(-c5ccncc5)n4)c3)cc2C(F)(F)F)CC1`, in test [1], the inhibition stood at 90.1%. In addition, the IC50 in test [2] was 5.9 µM.
Regarding `Clc1ccc2[nH]c3c(c2c1)CCc1cn[nH]c1-3`, the inhibition in test [1] amounted to 103%. Further, the IC50 in test [2] was 2.63 µM.
The like results for `O=C1C=CC(O)(c2cc(=O)c3c(O)cc(O)cc3o2)C=C1` were, in that order, 78.5% and 10.1 µM.
Regarding `O=C(CSc1nnnn1-c1ccc(O)cc1)Nc1cccc(S(=O)(=O)N2CCCC2)c1`, the inhibition in test [1] stood at 86.9%. For the same compound, the IC50 in test [2] is 5.89 µM.
Take `CCc1cccc2c(C(=O)COC(=O)c3ccc(O)cc3)c[nH]c12`: the inhibition in test [1] is 1.41%. Further, the IC50 in test [2] was > 20 µM (inactive).
`C[C@@H]1C[C@@H]2O[C@H]2/C=C\C=C\C(=O)Cc2c(Cl)c(O)cc(O)c2C(=O)O1`: in test [1], the inhibition stood at 120%. The IC50 in test [2] is 0.372 µM.
With `O=C(Nc1nccs1)c1ccc(CSc2nnnn2-c2ccccc2)cc1`, the inhibition in test [1] was determined as 0.93%. In addition, the IC50 in test [2] was > 20 µM (inactive).
`Cc1ccc(NC(=O)CSc2nnnn2-c2ccc3c(c2)OCO3)cc1C`: in test [1], the inhibition was determined as 0.243%. The IC50 in test [2] is > 20 µM (inactive).
The like results for `O=C(Nc1cccc(Cl)c1)N1N=CCC1c1ccccc1` (stereo not drawn) were, in that order, 81.4% and 16.9 µM.
Take `OCCCNc1nccc(-c2cc(Nc3cccc(Cl)c3)ncn2)n1`: the inhibition in test [1] was 82.7%. Also, the IC50 in test [2] was 10.7 µM.
`COc1ccc(/C=N/Nc2ccccn2)cc1OC`: the inhibition in test [1] came out at 80.7%. Further, the IC50 in test [2] is 16.3 µM.
